Laboratory results from patent publication US8507235B2, “Isoprene production using the DXP and MVA pathway” (Danisco US Inc., priority 2009, dated 2013).
“And” between values parts separate entries of the source, which are not always exact repeats. Equal values may be shown once. Read-outs that look alike come from different tables or passages of the source.

Assays:
[1] = Flammability limits of isoprene (computer simulation and experimental testing); assay type: physicochemical
Text: Thus, computer modeling and experimental testing were used to determine the flammability limits of isoprene (such as isoprene in the presence of O2, N2, CO2, or any combination of two or more of the foregoing gases) in order to ensure process safety. The flammability envelope is characterized by the lower flammability limit (LFL), the upper flammability limit (UFL), the limiting oxygen concentration (LOC), and the limiting temperature. For a system to be flammable, a minimum amount of fuel (such as isoprene) must be in the presence of a minimum amount of oxidant, typically oxygen. The LFL is the minimum amount of isoprene that must be present to sustain burning, while the UFL is the maximum amount of isoprene that can be present. Above this limit, the mixture is fuel rich and the fraction of oxygen is too low to have a flammable mixture. The LOC indicates the minimum fraction of oxygen that must also be present to have a flammable mixture. The limiting temperature is based on the flash point of isoprene and is that lowest temperature at which combustion of isoprene can propagate. These limits are specific to the concentration of isoprene, type and concentration of oxidant, inerts present in the system, temperature, and pressure of the system. […]

[2] = system: E. coli strain MCM597; experiment: Carbon sources useful for the production of isoprene (Biolog PM1 plate); assay type: cell-based; conditions: 0.2% yeast extract, compound as carbon source; normalized to α-D-glucose
[3] = system: E. coli strain MCM597; experiment: Carbon sources affecting isoprene production during growth on glucose (Biolog PM1 and PM2A plates); assay type: cell-based; conditions: 0.5% glucose, 0.2% yeast extract; normalized to control only fed glucose; p<0.1
[4] = system: E. coli strain MCM597; experiment: Nitrogen sources affecting isoprene production (Biolog PM3B plates); assay type: cell-based; conditions: 0.5% glucose as sole carbon source, no yeast extract; p<0.1
[5] = system: REM A2—17 strain; experiment: Specific productivity of isoprene of strain REM A2—17 in the presence and absence of fosmidomycin (headspace assay); assay type: cell-based, E. coli; conditions: 2 mM fosmidomycin; for activity at 2000 µM: Escherichia coli, 0.75 h, read-out: fraction of isoprene produced during exposure to fosmidomycin relative to absence of the inhibitor (MVA-flux)
[6] = system: REM A2—17 strain; experiment: Accumulation of DXP and MVA pathway metabolites in REM A2—17 with and without fosmidomycin (LC-MS/MS); assay type: cell-based, E. coli; conditions: 2 mM fosmidomycin, 45 min. incubation
[7] = system: dxr null E. coli BL21 strain; assay type: cell-based
[8] = system: E. coli BL21 strain harboring the GI1.6-dxr locus; experiment: Isoprene production with fosmidomycin in the growth media, GI1.6-dxr strain; assay type: cell-based; conditions: 1 mM fosmidomycin in the growth media
[9] = system: strains REM H8—12 and REM I7—11; assay type: cell-based, E. coli
[10] = target: T1, Dxr from E. coli (Escherichia coli, UniProt P45568); experiment: Dxr inactivation by incubation with DMAPP and HDMAPP; assay type: biochemical; conditions: purified Dxr from E. coli
T1 construct: His tag (pET15b) (N); made in house; host or cells: E. coli BL21(λDE3)
Procedure: The purified protein, 5 uM, was incubated at several concentration of DMAPP or HMBPP (Echelon Bioscience, Salt Lake City, Utah) in buffer consisting of 100 mM Tris, 100 mM NaCl pH 8, 5 mM MgCl2, 0.2 mM NADPH, 0.2 mM DXP, and 250 nM DXR. D at 37° C. for two hour in a total volume of 50 uL. Dxr activity was measured periodically according to standard assay, see, e.g., Koppisch et al, Biochemistry, 41:236-43 (2002) with a 20-fold dilution of the inactivation reaction mixture. […] Where appropriate additional control activity assays were conducted in the presence of a 20-fold diluted concentration of inactivators (DMAPP or HMBPP).

[11] = about 1 atmosphere and about 60° F.; cited from earlier work
[12] = approx. 45 minutes, unlabeled culture without tryptophan (FIG. 98)

T1 sequence (P45568 whole entry): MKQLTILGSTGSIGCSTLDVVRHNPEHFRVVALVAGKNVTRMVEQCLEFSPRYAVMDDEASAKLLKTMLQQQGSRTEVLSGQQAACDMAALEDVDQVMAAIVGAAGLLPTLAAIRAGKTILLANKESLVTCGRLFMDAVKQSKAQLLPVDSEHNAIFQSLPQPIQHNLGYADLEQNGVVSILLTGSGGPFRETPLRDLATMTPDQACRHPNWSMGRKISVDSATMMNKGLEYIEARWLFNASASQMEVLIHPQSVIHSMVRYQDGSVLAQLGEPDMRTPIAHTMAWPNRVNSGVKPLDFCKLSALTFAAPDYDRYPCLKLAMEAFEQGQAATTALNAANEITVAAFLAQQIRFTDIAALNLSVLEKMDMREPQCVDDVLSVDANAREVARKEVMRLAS

| SMILES | specific productivity of isoprene [3] | specific isoprene production [4] | other results |
| --- | --- | --- | --- |
| C=CC(=C)C [isoprene, 2-methyl-1,3-butadiene] |  |  | limiting temperature [1]: about −54 °C; limiting oxygen concentration (LOC) ([1]; isoprene, O2, N2, and CO2 mixture at 40° C. and 1 atmosphere): 9.5 vol % |
| OC[C@@H](O)[C@@H](O)[C@H](O)[C@H](O)CO [D-mannitol] |  |  | specific productivity of isoprene [2]: increasing |
| O=C(CO)[C@@H](O)[C@H](O)[C@H](O)CO [D-fructose] |  |  | specific productivity of isoprene [2]: increasing |
| O=C(O)[C@H](O)[C@@H](O)[C@H](O)[C@H](O)CO [D-gluconic acid] | increasing |  |  |
| C[C@@H](O)[C@H](N)C(=O)O [L-threonine] |  | increasing |  |
| N [ammonia] |  | did not significantly change |  |
| Nc1ncnc2nc[nH]c12 [adenine] |  | negatively affecting |  |
| N[C@@H](CO)C(=O)O [L-serine] |  | increasing |  |
| O=C[C@H](O)[C@@H](O)[C@H](O)[C@H](O)COP(=O)(O)O [D-glucose-6-phosphate] |  |  | specific productivity of isoprene [2]: increasing |
| NCCc1ccccc1 [phenylethylamine] | increasing |  |  |
| CCC(=O)O [propionic acid] | increasing |  |  |
| OC[C@H]1O[C@H](O[C@H]2O[C@H](CO)[C@@H](O)[C@H](O)[C@H]2O)[C@H](O)[C@@H](O)[C@@H]1O [D-trehalose] |  |  | specific productivity of isoprene [2]: increasing |
| N[C@@H](Cc1ccc(O)cc1)C(=O)O [L-tyrosine] |  | negatively affecting |  |
| NC(=O)C[C@H](N)C(=O)O [L-asparagine] |  | increasing |  |
| O=C[C@H](O)[C@@H](O)[C@@H](O)[C@H](O)C(=O)O [D-galacturonic acid] | increasing |  | specific productivity of isoprene [2]: increasing |
| N[C@@H](C(=O)O)[C@@H](O)[C@H](O)[C@H](O)CO [D-glucosaminic acid] | increasing |  |  |
| O=C(O)[C@@H](O)[C@H](O)[C@H](O)[C@@H](O)C(=O)O [mucic acid] | increasing |  |  |
| O=CN(O)CCCP(=O)(O)O [fosmidomycin] |  |  | decrease in isoprene production with fosmidomycin (DXP-flux) ([5]; 1-13C glucose culture with 50 uM tryptophan (FIG. 98)): 51%; decrease in isoprene production with fosmidomycin (DXP-flux) ([5]; 1-13C glucose culture without tryptophan): 42% and 43%; decrease in isoprene production with fosmidomycin (DXP pathway contribution) ([5]; 3-13C glucose): 43% and ~42%; decrease in isoprene production with fosmidomycin (DXP pathway contribution) [5, 12]: ~48%; fraction of isoprene produced during exposure to fosmidomycin relative to absence of the inhibitor (MVA pathway contribution) [5, 12]: roughly 52%; fraction of isoprene produced during exposure to fosmidomycin relative to absence of the inhibitor (MVA pathway contribution) ([5]; approx. 45 minutes, unlabeled glucose (FIG. 96)): roughly 59%; decrease in isoprene production with fosmidomycin (DXP pathway contribution) ([5]; approx. 45 minutes, unlabeled glucose (FIG. 96, 97)): 41%; fraction of isoprene produced during exposure to fosmidomycin relative to absence of the inhibitor (MVA pathway contribution) ([5]; approx. 1 hour, 3-13C glucose (FIG. 99)): roughly 58%; activity at 2000 µM ([5]; approx. 45 minutes, 1-13C glucose culture with 50 uM tryptophan (FIG. 98)): 49%; activity at 2000 µM ([5]; approx. 45 minutes, 1-13C glucose culture without tryptophan (FIG. 98)): 57%; DXP concentration [6]: significant increase; HDMAPP concentration [6]: decrease; concentration of MEP, CDP-ME and cMEPP [6]: drop; concentration of MVA [6]: did not change; decrease of the cumulative amount of IPP and DMAPP [6]: 55%; isoprene production [7]: same level of isoprene production; isoprene production [8]: undetectable level |
| O=C(O)C[C@H](O)C(=O)O [L-malic acid] | increasing |  |  |
| CSCC[C@H](N)C(=O)O [L-methionine] |  | negatively affecting |  |
| CC(=O)N[C@H]1C(O)O[C@H](CO)[C@@H](O)[C@@H]1O (stereo partly drawn) [N-acetyl-D-glucosamine] |  |  | specific productivity of isoprene [2]: increasing |

| SMILES | specific productivity of isoprene [3] | specific isoprene production [4] | other results |
| --- | --- | --- | --- |
| C[C@@](O)(CCO)CC(=O)O [mevalonic acid, (R)-mevalonic acid] |  |  | isoprene specific productivity from mevalonate (m/z of 67) [9]: increased with increasing mevalonic acid concentration; specific productivity of isoprene from [U-13C]-glucose (m/z of 73) [9]: the same |
| O=NO [nitrite] |  | did not significantly change |  |
| C/C(=C\COP(=O)(O)OP(=O)(O)O)CO [HMBPP, 1-hydroxy-2-methyl-2-(E)-butenyl 4-diphosphate] |  |  | Dxr activity after incubation with the compound [10]: inactivated |
| OC[C@H]1O[C@H](O)[C@H](O)[C@@H](O)[C@@H]1O [α-D-glucose] |  |  | specific productivity of isoprene [2]: increasing |
| O=C1O[C@H]([C@@H](O)CO)[C@@H](O)[C@@H]1O [L-galactonic acid-γ-lactone] | increasing |  |  |
| O=[N+]([O-])O [nitrate] |  | did not significantly change |  |
| NCCO [2-aminoethanol] | increasing |  |  |
| N[C@@H](CCC(=O)O)C(=O)O [L-glutamic acid] |  | increasing |  |
| Nc1nc2c(ncn2[C@@H]2O[C@H](CO)[C@@H](O)[C@H]2O)c(=O)[nH]1 [guanosine] |  | increasing |  |
| CCO [ethanol] |  |  | limiting oxygen concentration (LOC) [11]: about 8.7 vol %; lower flammability limit (LFL) [11]: about 3.3 vol % |
| O=C[C@@H](O)[C@@H](O)[C@H](O)[C@H](O)CO [D-mannose] | increasing |  |  |
| O=C(CO)[C@H](O)[C@H](O)[C@H](O)CO [D-psicose] | increasing |  |  |
| OC[C@H]1O[C@@](CO)(O[C@H]2O[C@H](CO)[C@@H](O)[C@H](O)[C@H]2O)[C@@H](O)[C@@H]1O [sucrose] | increasing |  |  |
| NC(N)=O [urea] |  | did not significantly change |  |
| OC[C@H]1O[C@@H](O[C@H]2[C@H](O)[C@@H](O)[C@H](O)O[C@@H]2CO)[C@H](O)[C@@H](O)[C@@H]1O [D-cellobiose] | increasing |  |  |
| N[C@@H](CC(=O)O)C(=O)O [L-aspartic acid] |  | increasing |  |
| N[C@@H](Cc1c[nH]c2ccccc12)C(=O)O [L-tryptophan] |  | increasing |  |
| OC[C@H]1O[C@@H](n2cnc3c(O)ncnc32)[C@H](O)[C@@H]1O [inosine] | increasing | increasing |  |
| N[C@@H](Cc1ccccc1)C(=O)O [L-phenylalanine] | increasing |  |  |
| CC(O)C(C)O (stereo not drawn) [2,3-butanediol] | increasing |  |  |
| NC(=O)[C@@H](O)[C@@H](O)[C@H](O)[C@@H](O)C=O [glucuronamide] | increasing |  |  |
